The test system of assay [1] is OVCAR-3. The assay is described as follows: Cytotoxicity against human OVCAR3 cells assessed as decrease in cell viability after 72 hrs by CellTiter 96 AQueous one solution cell proliferation assay. It counts as functional, cell-based. Particulars: OVCAR-3, 72 h.
The subject of assay [2] is MDA-MB-231. As to the kind of experiment: Cytotoxicity against human MDA-MB-231 cells assessed as decrease in cell viability after 72 hrs by CellTiter 96 AQueous one solution cell proliferation assay. Particulars: MDA-MB-231, 72 h.
The subject of assay [3] is MDA-MB-435. The assay is described as follows: Cytotoxicity against human MDA-MB-435 cells assessed as decrease in cell viability after 72 hrs by CellTiter 96 AQueous one solution cell proliferation assay. The class given is functional, cell-based. Particulars: MDA-MB-435, 72 h.

Square brackets hold non-standard residues; d marks the D form. Peptide text beside a SMILES is read from it. * marks the point of attachment. Phe(ol) = N[C@H](CO)Cc1ccccc1; X1 = OC[C@H](Cc1cccc(F)c1)N*; X2 = OC[C@H](Cc1ccccc1F)N*; Aib = CC(C)(N)C(=O)O

Take `CC(=O)NC(C)(C)C(=O)N[C@@H](C)C(=O)NC(C)(C)C(=O)N[C@@H](C)C(=O)NC(C)(C)C(=O)N[C@@H](C)C(=O)N[C@@H](CCC(N)=O)C(=O)NC(C)(C)C(=O)N[C@H](C(=O)NC(C)(C)C(=O)NCC(=O)N[C@@H](CC(C)C)C(=O)NC(C)(C)C(=O)N1CCC[C@H]1C(=O)N[C@H](C(=O)NC(C)(C)C(=O)NC(C)(C)C(=O)N[C@@H](CCC(N)=O)C(=O)N[C@@H](CCC(N)=O)C(=O)N[C@H](CO)Cc1cccc(F)c1)C(C)C)C(C)C` (Ac-[Aib]A[Aib]A[Aib]AQ[Aib]V[Aib]GL[Aib]PV[Aib][Aib]QQ-X1): the half-maximal inhibitory concentration (IC50) – broadly, the concentration that inhibits the measured activity by half – in assay [1] is 4.4 µM. In the case of `CC(=O)NC(C)(C)C(=O)N[C@@H](C)C(=O)NC(C)(C)C(=O)N[C@@H](C)C(=O)NC(C)(C)C(=O)N[C@@H](C)C(=O)N[C@@H](CCC(N)=O)C(=O)NC(C)(C)C(=O)N[C@H](C(=O)NC(C)(C)C(=O)NCC(=O)N[C@@H](CC(C)C)C(=O)NC(C)(C)C(=O)N1CCC[C@H]1C(=O)N[C@H](C(=O)NC(C)(C)C(=O)NC(C)(C)C(=O)N[C@@H](CCC(N)=O)C(=O)N[C@@H](CCC(N)=O)C(=O)N[C@H](CO)Cc1ccccc1F)C(C)C)C(C)C` (Ac-[Aib]A[Aib]A[Aib]AQ[Aib]V[Aib]GL[Aib]PV[Aib][Aib]QQ-X2), the IC50 in assay [1] was 5 µM. For `CC(=O)NC(C)(C)C(=O)N[C@@H](C)C(=O)NC(C)(C)C(=O)N[C@@H](C)C(=O)NC(C)(C)C(=O)N[C@@H](C)C(=O)N[C@@H](CCC(N)=O)C(=O)NC(C)(C)C(=O)N[C@H](C(=O)NC(C)(C)C(=O)NCC(=O)N[C@@H](CC(C)C)C(=O)NC(C)(C)C(=O)N1CCC[C@H]1C(=O)N[C@H](C(=O)NC(C)(C)C(=O)NC(C)(C)C(=O)N[C@@H](CCC(N)=O)C(=O)N[C@@H](CCC(N)=O)C(=O)N[C@H](CO)Cc1ccccc1)C(C)C)C(C)C` (Ac-[Aib]A[Aib]A[Aib]AQ[Aib]V[Aib]GL[Aib]PV[Aib][Aib]QQ[Phe(ol)]), the IC50 came to 5.1 µM in assay [1], 5.1 µM in assay [2] and 4.8 µM in assay [3]. `CC(=O)O[C@H]1C(=O)[C@@]2(C)[C@H]([C@H](OC(=O)c3ccccc3)[C@]3(O)C[C@H](OC(=O)[C@H](O)[C@@H](NC(=O)c4ccccc4)c4ccccc4)C(C)=C1C3(C)C)[C@]1(OC(C)=O)CO[C@@H]1C[C@@H]2O` [PACLITAXEL]: the IC50 in assay [1] was 0.002 µM.

The record behind these values is ChEMBL document CHEMBL4190211, “Biosynthesis of Fluorinated Peptaibols Using a Site-Directed Building Block Incorporation Approach” (J Nat Prod, 2017).
